Test results reported in patent publication US9289496B2, “Lipid dipeptide and gel” (Nissan Chemical Industries, Ltd., priority 2008, dated 2016).
Residues, ends and D or L forms follow the SMILES beside them.

Experiments:
[1] = Usable mediums: solubility and gel formation, conventional art vs palmitoyl-Gly-His; format: physicochemical
[2] = Non-patent Document 10; cited from earlier work

Solubility in medium ([1]; 50 mM acetate buffer with pH 5, even when heated): insoluble | Solubility in medium ([1]; 50 mM citrate buffer with pH 5, even when heated): insoluble | Gel formation ([1]; ethanol/water mixed solvent having an ethanol concentration of 80% or more): does not form a gel
SMILES: CCCCCCCCCCCCCCCC(=O)NCC(=O)NCC(=O)NCC(=O)N[C@@H](Cc1c[nH]cn1)C(=O)O [palmitoyl-Gly-Gly-Gly-His] (HELM PEPTIDE1{[CCCCCCCCCCCCCCCC(=O)[*:2]].G.G.G.H}$$$$V2.0)
lowest gelation concentration [2]: 0.03 wt %
